Experiment: In Vivo Exposure as Measured by Rat Plasma Concentration
Conditions: Fischer 344 male rats, sum of the concentrations at 0.5 and 1 hour or at 1 and 3 hour, LC/MS/MS
Experimental: To study the in vivo exposure of compounds of Formula II following oral dosing of compounds of Formula I in comparison to compounds of Formula II, studies measuring the plasma concentrations of the respective compound of Formula II in rats are performed. Mature Fischer 344 male rats (190-270 gram) are obtained from Harlan Sprague-Dawley, Cumberland, Ind., USA, and acclimated in the study housing for 3 days. […] Blood samples are collected through orbital sinus or cardiac puncture (last time point) at 0.5 and 1 hour or, alternatively, at 1 and 3 hours. Plasma samples are stored at −20° C. in the presence of phenylmethylsulfonyl fluoride, a protease inhibitor, prior to analysis. Plasma samples and internal standard compounds are pretreated by solid phase extraction (SAX support, methanol/water/dilute acetic acid).
As shown in Tables 1A and 1B below, the plasma concentrations (ng/ml) of the respective compound of Formula II for each test compound are determined by LC/MS/MS and are presented as a sum of the concentrations at the 0.5 and 1 hour or, alternatively, at the 1 and 3 hour sample time points.

SMILES: N[C@@]1(C(=O)O)CS(=O)(=O)[C@H]2[C@H](C(=O)O)[C@H]21 [Non-prodrug form of Example 1, (1R,4S,5S,6S)-4-Amino-2,2-dioxo-2λ^6-thia-bicyclo[3.1.0]hexane-4,6-dicarboxylic acid]
- Rat Exposure (ng/ml of (1R,4S,5S,6S)-4-(2′S-Aminopropionyl)amino-]-2,2-dioxo-2λ^6-thia-bicyclo[3.1.0.]hexane-4,6-dicarboxylic acid hydrochloride) (following 5 mg/kg p.o.): 1521 ng/ml (following 5 mg/kg p.o.)

SMILES: C[C@H](N)C(=O)N[C@@]1(C(=O)O)C[C@@H](F)[C@H]2[C@H](C(=O)O)[C@H]21.Cl [Example 14, (1R,2S,4R,5R,6R)-2-(2′S-Amino-propionyl)amino-4-fluorobicyclo[3.1.0]hexane-2,6-dicarboxylic acid hydrochloride]
- Rat Exposure (ng/ml of (1R,2S,4R,5R,6R)-2-(2′S-Aminopropionyl)amino-4-fluorobicyclo[3.1.0]hexane-2,6-dicarboxylic acid hydrochloride) (following 5 mg/kg p.o.): 5271 ng/ml (following 5 mg/kg p.o.)

SMILES: N[C@@]1(C(=O)O)C[C@@H](F)[C@H]2[C@H](C(=O)O)[C@H]21 [Non-prodrug form of Example 14, 1R,2S,4R,5R,6R-2-amino-4-fluorobicyclo[3.1.0]hexane-2,6-dicarboxylic acid]
- Rat Exposure (ng/ml of (1R,2S,4R,5R,6R)-2-(2′S-Aminopropionyl)amino-4-fluorobicyclo[3.1.0]hexane-2,6-dicarboxylic acid hydrochloride) (following 5 mg/kg p.o.): 1162 ng/ml (following 5 mg/kg p.o.)
- Rat Exposure (ng/ml of (1R,2S,4R,5R,6R)-2-(2′S-Aminopropionyl)amino-4-fluorobicyclo[3.1.0]hexane-2,6-dicarboxylic acid hydrochloride) (following 10 mg/kg p.o.): 1342 ng/ml (following 10 mg/kg p.o.)

Reference: US8153683B2, “Methods of treatment using a prodrug of an excitatory amino acid” (Eli Lilly and Company, priority 2002, dated 2012)
